In this experiment the target is Transient receptor potential cation channel subfamily V member 1 (Rattus norvegicus, UniProt O35433). The experiment in a line: Agonist activity at rat TRPV1 expressed in CHO cells assessed as maximal calcium uptake.
Sequence of Transient receptor potential cation channel subfamily V member 1 (O35433 whole entry): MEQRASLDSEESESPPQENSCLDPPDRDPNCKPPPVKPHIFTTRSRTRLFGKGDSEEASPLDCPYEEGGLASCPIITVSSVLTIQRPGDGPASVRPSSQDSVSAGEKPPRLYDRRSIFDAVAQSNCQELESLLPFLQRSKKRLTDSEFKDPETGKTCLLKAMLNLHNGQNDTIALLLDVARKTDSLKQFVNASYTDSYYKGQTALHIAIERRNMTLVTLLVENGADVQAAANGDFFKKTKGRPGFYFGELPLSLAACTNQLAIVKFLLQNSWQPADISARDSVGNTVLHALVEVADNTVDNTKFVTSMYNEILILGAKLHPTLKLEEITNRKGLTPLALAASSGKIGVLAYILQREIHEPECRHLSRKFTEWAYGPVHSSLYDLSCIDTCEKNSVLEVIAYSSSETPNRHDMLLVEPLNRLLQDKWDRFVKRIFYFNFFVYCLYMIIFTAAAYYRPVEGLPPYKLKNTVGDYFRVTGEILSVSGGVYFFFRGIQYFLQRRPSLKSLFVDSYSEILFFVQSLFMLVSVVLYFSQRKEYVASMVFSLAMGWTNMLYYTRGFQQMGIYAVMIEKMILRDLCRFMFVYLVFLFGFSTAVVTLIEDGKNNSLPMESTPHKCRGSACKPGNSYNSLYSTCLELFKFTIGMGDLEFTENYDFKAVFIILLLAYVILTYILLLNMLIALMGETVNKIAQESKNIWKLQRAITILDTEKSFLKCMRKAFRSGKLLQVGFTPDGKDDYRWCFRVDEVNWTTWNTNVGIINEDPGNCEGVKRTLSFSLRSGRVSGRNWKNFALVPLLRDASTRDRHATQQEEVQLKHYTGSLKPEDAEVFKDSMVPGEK

Take `COc1cc(CNC(=S)NC(COC(=O)C(C)(C)C)Cc2ccc(C(C)(C)C)cc2)ccc1O` (stereo unspecified) [2-(3-(4-hydroxy-3-methoxybenzyl)thioureido)-3-(4-tert-butylphenyl)propyl pivalate]: the EC50 was determined as 5.7 nM.

These data come from BindingDB's records for doi:10.1016/j.bmcl.2006.09.059 (Seoul National University, 2006).
